This is an account of results in patent publication US20180028480A1, “METHODS OF REDUCING OR PREVENTING OXIDATIVE MODIFICATION OF MEMBRANE POLYUNSATURATED FATTY ACIDS” (Amarin Pharmaceuticals Ireland Limited, priority 2015, published 2018).

The subject of one experiment is unfractionated LDL. The experiment can be described thus: Copper-induced oxidation of unfractionated LDL, TBARS (Example 6). It is filed as biochemical, human. As to conditions: 1.0 μM to 10.0 μM. The method, then:
All test compounds were further diluted in ethanol or aqueous buffer as needed. Venous blood was collected from healthy volunteers into vacutainer tubes containing sodium EDTA. […] Plasma and lipoprotein fractions were maintained at 4° C. and protected from excessive exposure to light. Prior to oxidation experiments, EDTA was removed from the lipoprotein fraction using PD-10 desalting columns (GE Healthcare, Piscataway N.J.). After equilibration of the column with phosphate buffered saline (PBS), 2.5 mL of the lipoprotein fraction was loaded on the column and the flow-through discarded. The lipoprotein was then eluted with 3 mL of PBS. The LDL fractions were further diluted with PBS to obtain a 100 μg/mL apoB100 concentration. […] Sample TBARS concentrations were determined spectrophotometrically by measuring sample absorbances against a standard curve derived from the hydrolysis of 1,1,3,3-tetramethoxypropane. […] Differences between groups were analyzed using the two-tailed, Student's t-test (for comparisons between only two groups) or ANOVA followed by Dunnett or Student-Newman-Keuls multiple comparisons post-hoc analysis (for comparisons between three or more groups).

In experiment [1] the test system is lipid vesicles enriched with PUFAs and cholesterol. Description: Glucose-induced membrane lipid peroxidation (LOOH) in DLPC/cholesterol multilamellar vesicles (Example 4). It is filed as biochemical. As to conditions: for effect on LOOH formation / lipid peroxidation: 72- and 96-hour time points, 1:30 drug-to-phospholipid mole ratio (FIG. 3). The method, then: Vitamin E (α-tocopherol) was also purchased from Sigma-Aldrich and prepared in ethanol at 1.0 mM (ε32 3.06×10^4 M^−1 cm^−1 at 294 nm) just prior to experimental use. […] All test compounds were further diluted in ethanol or aqueous buffer as needed. Glucose was prepared in saline buffer (0.5 mM HEPES, 154 mM NaCl, pH 7.3) at 11.0 mM (200 mg/dL). CHOD-iodide color reagent (stock) was prepared, with slight modification, as described by from El-Saadani et al. (J. […] Prior to experimental use, the CHOD reagent was activated by adding 24 μM ethylenediaminetetraacetic acid (EDTA), 20 μM butylated hydroxytoluene (BHT), and 0.2% Triton X-100. Multilamellar vesicles (MLVs) were prepared as binary mixtures of DLPC (1.0 or 2.5 mg total phospholipid per sample) and cholesterol at a fixed cholesterol-to-phospholipid (C/P) mole ratio of 0.6:1. Component lipids (in chloroform) were transferred to 13×100 mm borosilicate culture tubes and combined with vehicle (ethanol) or an equal volume of fatty acid, vitamin E, or ATM stock solutions, each adjusted to achieve desired treatment concentrations. Samples were shell-dried under nitrogen gas and placed under vacuum for 1 h to remove residual solvent. […] Lipid suspensions were then vortexed for 3 min at ambient temperature to form MLVs. All MLV samples were subjected to time-dependent autoxidation by incubating at 37° C. in an uncovered, shaking water bath. This method allows lipid peroxidation to occur gradually without requiring the use of exogenous initiators. Small aliquots (5-100 μL) of each sample were removed, immediately following MLV preparation (0 hour) and after exposing samples to oxidative conditions for 72 or 96 hour, and combined with 1.0 mL of activated CHOD-iodide color reagent. Aliquot volume was reduced with each successive time point to ensure that spectrophotometric readings were within the optimal adsorption range. Test samples were covered and incubated in darkness at room temperature for at least 4 hr. Sample absorbances were then measured against a CHOD blank at 365 nm using a Beckman DU-640 spectrophotometer. The CHOD colorimetric assay is based on the oxidation of iodide (I^−) by lipid hydroperoxide (LOOH) to form triiodide (I3^−), the quantity of which is directly proportional to the amount of LOOH present in the lipid sample. The molar absorptivity (c) of I3^− is 2.46×10^4 M^−1 cm^−1 at 365 nm. […] The concentration of glucose selected was consistent with previous experimental studies of hyperglycemia under controlled laboratory conditions or observed in well-defined animal models of Type II diabetes following a glucose challenge. […] Values in FIG. 1 are mean±S.D. (N=6). […]

Consider `CC/C=C\C/C=C\C/C=C\C/C=C\C/C=C\CCCC(=O)O` [EPA, cis-5,8,11,14,17-Eicosapentaenoic acid], for which the LDL oxidation result with unfractionated LDL is on record as “generally inhibit LDL oxidation”. Further, in experiment [1], the “effect on LOOH formation / lipid peroxidation” value is listed as “significantly inhibited LOOH formation”. The “antioxidant effect (LOOH formation), separate treatments” value in experiment [1] (each at 1.0 μM, glucose 200 mg/dL, 96 hours) is “separate and potent antioxidant effects”.
For the compound `Cc1c(C)c2c(c(C)c1O)CC[C@@](C)(CCC[C@H](C)CCC[C@H](C)CCCC(C)C)O2` [vitamin E, α-tocopherol, reference compound], in the experiment with unfractionated LDL, the LDL oxidation entry was “did not inhibit LDL oxidation at any concentration”. Also, the “effect on LOOH formation / lipid peroxidation” value in experiment [1] was “no significant effect on lipid peroxidation”.
